Laboratory results: patent publication US6653354B2, “NMDA antagonist comprising xenon” (priority 1999, dated 2003)
Entries after “also recorded” stand apart in the source; their conditions may differ.

Legend:
rats = assay: MAC in rats; type: in vivo; settings: 37° C.
Method: The gaseous concentration of xenon which prevents a response to a painful stimulus (i.e. MAC) appears to vary among species, being 71% atm in humans (Cullen SC et al, Anesthesiology 1969, 31:305-309), 98% atm in rhesus monkeys (Whitehurst S L et al, J. Neurosurg. Anesthesiol. 1994, 6:275-279) and 161% atm in rats (Koblin D D et al, Anesth. Analg. 1998, 87:419-424). When these values are converted to free aqueous concentrations at 37° C. (Franks N P et al, Br. J. Anaesth. 1993, 71:65-76; Franks N P et al, Anesthesiology, 1996, 84:716-720) using an Ostwald water/gas partition coefficient of 0.0887 (Weathersby P K et al, Undersea Biomed. Res. 1980, 7:277-296), the values obtained are 2.5 mM, 3.4 mM and 5.6 mM for humans, monkeys and rats respectively, with the average value being 3.8 mM. For the experiments described herein, performed at room temperature, the concentration of xenon present in the standard test solution was 3.4 mM. […] This is illustrated with representative traces in FIG. 2.

GABAA receptors = biological target: T1, GABAA receptors (Bos taurus, UniProt P08219+P08220+P22300); assay: Currents activated by GABA in voltage-clamped PA3 cells stably expressing defined GABA subunits; type: cell-based; settings: 100% xenon
T1 construct: expressed in transfected cells
T1 sequence (P08219 28-456): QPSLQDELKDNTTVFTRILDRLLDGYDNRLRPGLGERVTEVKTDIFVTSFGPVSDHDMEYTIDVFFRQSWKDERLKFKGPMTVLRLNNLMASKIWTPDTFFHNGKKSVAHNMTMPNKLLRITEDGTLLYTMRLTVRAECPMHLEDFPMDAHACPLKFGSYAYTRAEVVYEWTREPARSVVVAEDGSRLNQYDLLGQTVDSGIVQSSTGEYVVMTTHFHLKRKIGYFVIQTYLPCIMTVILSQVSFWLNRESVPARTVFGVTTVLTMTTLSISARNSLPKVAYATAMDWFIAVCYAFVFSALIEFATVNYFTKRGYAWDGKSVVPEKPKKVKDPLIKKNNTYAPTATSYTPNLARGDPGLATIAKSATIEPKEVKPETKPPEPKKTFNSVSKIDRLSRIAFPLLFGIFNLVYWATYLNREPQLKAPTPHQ
T1 sequence (P08220 26-474): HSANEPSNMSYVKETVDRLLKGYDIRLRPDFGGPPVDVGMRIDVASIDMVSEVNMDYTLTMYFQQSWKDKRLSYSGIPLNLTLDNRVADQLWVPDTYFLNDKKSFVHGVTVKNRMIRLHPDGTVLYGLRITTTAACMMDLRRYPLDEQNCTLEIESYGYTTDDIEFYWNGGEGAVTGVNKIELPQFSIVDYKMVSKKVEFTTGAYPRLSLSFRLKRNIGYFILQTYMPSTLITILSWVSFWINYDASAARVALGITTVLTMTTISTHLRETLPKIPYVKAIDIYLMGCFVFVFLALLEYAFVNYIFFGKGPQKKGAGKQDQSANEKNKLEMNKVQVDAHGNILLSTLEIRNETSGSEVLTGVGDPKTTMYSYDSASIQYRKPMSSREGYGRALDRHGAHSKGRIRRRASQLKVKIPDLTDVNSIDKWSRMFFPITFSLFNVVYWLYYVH
T1 sequence (P22300 40-475): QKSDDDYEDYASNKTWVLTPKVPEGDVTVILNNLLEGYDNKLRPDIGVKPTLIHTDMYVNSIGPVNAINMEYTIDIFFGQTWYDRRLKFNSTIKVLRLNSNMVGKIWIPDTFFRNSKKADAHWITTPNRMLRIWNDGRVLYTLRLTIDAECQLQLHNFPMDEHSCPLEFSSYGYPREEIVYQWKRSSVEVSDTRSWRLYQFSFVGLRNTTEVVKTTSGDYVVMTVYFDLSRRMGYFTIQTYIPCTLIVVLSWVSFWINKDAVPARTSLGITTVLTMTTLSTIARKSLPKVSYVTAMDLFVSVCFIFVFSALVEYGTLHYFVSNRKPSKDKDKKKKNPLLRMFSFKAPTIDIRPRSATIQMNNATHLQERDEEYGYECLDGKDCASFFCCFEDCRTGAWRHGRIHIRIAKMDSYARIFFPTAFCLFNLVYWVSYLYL
Source text: Studies carried out by the applicant have shown that xenon has virtually no effect on GABAA receptors.

NMDA receptors = type: cell-based, rat; settings: 80% xenon

[Xe] [xenon]
MAC converted to free aqueous concentration (rats): 5.6 mM | effect on currents activated by 3 μM GABA (GABAA receptors): not significantly affected | change of NMDA EC50 or Hill coefficient in presence of xenon (NMDA receptors): no significant change; also recorded: does not significantly change
